Measured values reported in patent publication US8921410B2, “Nicotinic acetylcholine receptor sub-type selective amides of diazabicycloalkanes” (Targacept, Inc., priority 2006, dated 2014).
Where two headings read alike, the source gives them in different places.

Legend:
rat α4β2 nAChR subtype = rat α4β2 nAChR subtype (Rattus norvegicus (Rat), UniProt P09483+P12390); experiment: Radioligand ([3H]nicotine) binding at α4β2 nAChR, rat cortex membranes
Procedure: Preparation of Membranes from Rat Cortex:
(§1) Rats (female, Sprague-Dawley), weighing 150-250 g, were maintained on a 12 h light/dark cycle and were allowed free access to water and food supplied by PMI Nutrition International, Inc. Animals were anesthetized with 70% CO2, and then decapitated. Brains were removed and placed on an ice-cold platform. […] The homogenate was centrifuged at 18,000×g for 20 min at 4° C. and the resulting pellet was re-suspended in 20 volumes of ice-cold water. After 60 min incubation on ice, a new pellet was collected by centrifugation at 18,000×g for 20 min at 4° C. The final pellet was re-suspended in 10 volumes of buffer and stored at −20° C.
(§2) On the day of the assay, the frozen membranes were thawed and spun at 48,000×g for 20 min. The supernatant was decanted and discarded. The pellet was resuspended in Dulbecco's phosphate buffered saline (PBS, Life Technologies) pH 7.4 and homogenized with the Polytron for 6 seconds. Protein concentrations were determined using a Pierce BCA Protein Assay Kit, with bovine serum albumin as the standard (Pierce Chemical Company, Rockford, Ill.).
(§3) Tissue was rinsed 3 times in PBS, pH 7.4. Scintillation fluid was added to filters containing the washed tissue and allowed to equilibrate.
(§4) Data were expressed as disintegrations per minute (DPMs). Within each assay, each point had 2-3 replicates. The replicates for each point were averaged and plotted against the log of the drug concentration.

human α4β2 nAChR subtype = human α4β2 nAChR subtype (Homo sapiens (Human), UniProt P17787+P43681); experiment: Radioligand ([3H]nicotine) binding at α4β2 nAChR, SH-EP1/human α4β2 clonal cell membranes; settings: read-out: Human α4β2 Ki
Procedure: Preparation of Membranes from SH-EP1/Human α4β2 Clonal Cells:
Cell pellets from 40 150 mm culture dishes were pooled, and homogenized by Polytron (Kinematica GmbH, Switzerland) in 20 milliliters of ice-cold preparative buffer. The homogenate was centrifuged at 48,000 g for 20 minutes at 4° C. The resulting pellet was re-suspended in 20 mL of ice-cold preparative buffer and stored at −20° C.
as §2, §3, §4

α7 nAChR subtype = α7 nAChR subtype (Rattus norvegicus (Rat), UniProt Q05941); experiment: Radioligand ([3H]MLA) binding at α7 nAChR, rat hippocampus membranes
Procedure: as §1, with “CO2,” for “CO2, and”, “in 10” for “in 20”
The binding of [^3H]MLA was measured using a modification of the methods of Davies et al., Neuropharmacol. […] [^3H]MLA (Specific Activity=25-35 Ci/mmol) was obtained from Tocris. The binding of [^3H]MLA was determined using a 2 h incubation at 21° C. Incubations were conducted in 48-well micro-titre plates and contained about 200 μg of protein per well in a final incubation volume of 300 μL. The incubation buffer was PBS and the final concentration of [^3H]MLA was 5 nM. The binding reaction was terminated by filtration of the protein containing bound ligand onto glass fiber filters (GF/B, Brandel) using a Brandel Tissue Harvester at room temperature. […] Each filter was washed with PBS (3×1 mL) at room temperature. Non-specific binding was determined by inclusion of 50 μM non-radioactive MLA in selected wells.
The inhibition of [^3H]MLA binding by test compounds was determined by including seven different concentrations of the test compound in selected wells. Each concentration was replicated in triplicate. IC50 values were estimated as the concentration of compound that inhibited 50 percent of specific [^3H]MLA binding.

[1] = [3H]nicotine 5 nM, rat cortex membranes
[2] = [3H]nicotine 5 nM, SH-EP1/human α4β2 membranes
[3] = [3H]MLA 5 nM, rat hippocampus membranes
[4] = did not bind sufficiently in HTS at α7 to warrant Ki determination

Sequence of α7 nAChR subtype (Q05941 23-502): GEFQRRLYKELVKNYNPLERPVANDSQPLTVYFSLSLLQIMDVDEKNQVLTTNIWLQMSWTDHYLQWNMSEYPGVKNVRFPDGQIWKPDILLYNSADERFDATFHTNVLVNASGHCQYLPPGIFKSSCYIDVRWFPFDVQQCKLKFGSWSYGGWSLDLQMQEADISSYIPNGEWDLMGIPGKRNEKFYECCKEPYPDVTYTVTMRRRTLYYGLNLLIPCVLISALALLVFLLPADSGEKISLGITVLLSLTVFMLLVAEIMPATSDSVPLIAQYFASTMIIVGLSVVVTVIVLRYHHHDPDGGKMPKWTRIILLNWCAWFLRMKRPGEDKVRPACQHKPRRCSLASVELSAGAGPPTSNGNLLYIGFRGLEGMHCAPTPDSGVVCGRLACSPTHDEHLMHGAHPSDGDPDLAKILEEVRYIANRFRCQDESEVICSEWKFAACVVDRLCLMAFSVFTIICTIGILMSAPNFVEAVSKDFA
Sequence of human α4β2 nAChR subtype (P43681 29-627): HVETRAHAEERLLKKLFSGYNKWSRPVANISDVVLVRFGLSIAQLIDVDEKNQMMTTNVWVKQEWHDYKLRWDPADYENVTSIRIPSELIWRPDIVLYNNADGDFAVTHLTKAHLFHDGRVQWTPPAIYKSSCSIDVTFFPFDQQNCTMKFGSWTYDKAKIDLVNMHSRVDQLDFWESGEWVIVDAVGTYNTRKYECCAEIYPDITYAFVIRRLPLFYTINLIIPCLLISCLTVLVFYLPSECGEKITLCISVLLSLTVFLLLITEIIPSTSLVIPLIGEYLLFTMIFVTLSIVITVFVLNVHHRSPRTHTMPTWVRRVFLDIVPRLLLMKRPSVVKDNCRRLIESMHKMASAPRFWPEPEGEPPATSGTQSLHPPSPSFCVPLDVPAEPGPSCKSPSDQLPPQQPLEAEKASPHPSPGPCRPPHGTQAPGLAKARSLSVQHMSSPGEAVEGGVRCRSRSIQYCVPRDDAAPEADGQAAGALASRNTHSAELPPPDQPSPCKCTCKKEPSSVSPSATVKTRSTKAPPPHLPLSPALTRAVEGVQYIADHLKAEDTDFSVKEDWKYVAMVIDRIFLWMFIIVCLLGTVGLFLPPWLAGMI
Sequence of human α4β2 nAChR subtype (P17787 26-502): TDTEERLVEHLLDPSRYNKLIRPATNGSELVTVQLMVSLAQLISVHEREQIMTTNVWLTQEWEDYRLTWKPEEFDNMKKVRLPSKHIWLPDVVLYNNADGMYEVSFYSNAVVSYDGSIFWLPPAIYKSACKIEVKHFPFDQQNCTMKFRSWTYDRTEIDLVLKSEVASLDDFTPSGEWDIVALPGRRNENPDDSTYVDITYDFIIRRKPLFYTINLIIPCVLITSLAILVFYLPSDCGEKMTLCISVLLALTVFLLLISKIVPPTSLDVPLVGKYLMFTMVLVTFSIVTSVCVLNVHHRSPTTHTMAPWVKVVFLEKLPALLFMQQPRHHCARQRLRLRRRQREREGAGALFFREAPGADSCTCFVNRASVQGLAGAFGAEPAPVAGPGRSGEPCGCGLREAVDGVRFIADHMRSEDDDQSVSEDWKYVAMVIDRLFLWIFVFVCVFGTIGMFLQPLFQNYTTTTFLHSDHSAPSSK
Sequence of rat α4β2 nAChR subtype (P09483 31-630): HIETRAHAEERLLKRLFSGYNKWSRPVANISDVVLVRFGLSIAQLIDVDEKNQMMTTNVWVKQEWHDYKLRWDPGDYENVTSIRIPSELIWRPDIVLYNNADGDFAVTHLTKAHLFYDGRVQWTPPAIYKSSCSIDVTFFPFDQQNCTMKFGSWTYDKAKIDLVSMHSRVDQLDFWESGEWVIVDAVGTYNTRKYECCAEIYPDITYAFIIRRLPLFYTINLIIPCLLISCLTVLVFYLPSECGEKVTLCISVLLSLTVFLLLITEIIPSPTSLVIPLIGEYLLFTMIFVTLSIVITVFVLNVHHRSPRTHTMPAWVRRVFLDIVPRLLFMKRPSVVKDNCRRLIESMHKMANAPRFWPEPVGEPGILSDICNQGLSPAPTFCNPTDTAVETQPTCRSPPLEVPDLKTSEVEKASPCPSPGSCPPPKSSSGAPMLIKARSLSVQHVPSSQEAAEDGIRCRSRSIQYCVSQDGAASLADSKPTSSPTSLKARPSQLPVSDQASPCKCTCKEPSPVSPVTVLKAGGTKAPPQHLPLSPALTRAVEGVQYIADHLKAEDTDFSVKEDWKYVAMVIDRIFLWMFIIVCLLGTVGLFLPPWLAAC
Sequence of rat α4β2 nAChR subtype (P12390 25-500): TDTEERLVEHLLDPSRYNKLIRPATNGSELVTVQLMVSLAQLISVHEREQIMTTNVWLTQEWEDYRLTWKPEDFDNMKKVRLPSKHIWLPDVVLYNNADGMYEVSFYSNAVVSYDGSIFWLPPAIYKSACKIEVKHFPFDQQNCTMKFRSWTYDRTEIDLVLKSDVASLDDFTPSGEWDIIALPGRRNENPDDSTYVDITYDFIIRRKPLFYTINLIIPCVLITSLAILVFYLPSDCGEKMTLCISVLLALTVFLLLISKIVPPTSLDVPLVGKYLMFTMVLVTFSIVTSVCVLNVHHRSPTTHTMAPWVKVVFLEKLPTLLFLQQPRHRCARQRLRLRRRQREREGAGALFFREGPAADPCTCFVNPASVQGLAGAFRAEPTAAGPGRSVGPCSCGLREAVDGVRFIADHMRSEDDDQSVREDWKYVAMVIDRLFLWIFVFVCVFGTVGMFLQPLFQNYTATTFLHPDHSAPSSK

Row | Compound | Ki (rat α4β2 nAChR subtype; [1]) | Ki (human α4β2 nAChR subtype; [2]) | Ki (α7 nAChR subtype; [3]) | α7 high through-put screening outcome (Ki not determined) (α7 nAChR subtype; [4]) | Ki (rat α4β2 nAChR subtype) | Ki (human α4β2 nAChR subtype) | α7 high through-put screening outcome (Ki not determined) (α7 nAChR subtype) | Ki (α7 nAChR subtype)
1 | O=C(c1ccco1)N1CC2CNCC2C1 (centres unmarked) [N-(furan-2-ylcarbonyl)-3,7-diazabicyclo[3.3.0]octane] | 20 nM | 33 nM | 13000 nM |  |  |  |  | 
2 | O=C(c1cc(Cl)co1)N1CC2CNCC2C1 (centres unmarked) | 21 nM | 9.7 nM |  | ND; failed HTS |  |  |  | 
3 | O=C(c1cc(-c2cc(F)cc(F)c2)co1)N1CC2CNCC2C1 (centres unmarked) | 54 nM | 24 nM |  | ND; failed HTS |  |  |  | 
4 | Cc1ccoc1C(=O)N1CC2CNCC2C1 (centres unmarked) | 44 nM | 54 nM | 25000 nM |  |  |  |  | 
5 | N#Cc1ccoc1C(=O)N1CC2CNCC2C1 (centres unmarked) |  |  |  |  | 25 nM | 14 nM | ND; failed HTS | 
6 | Cc1cc(C(F)(F)F)c(C(=O)N2CC3CNCC3C2)o1 (centres unmarked) | 1000 nM | 45 nM |  | ND; failed HTS |  |  |  | 
7 | COc1ccoc1C(=O)N1CC2CNCC(C2)C1 | 560 nM |  |  | ND; failed HTS |  | 28 nM |  | 
8 | Cc1nocc1C(=O)N1CC2CNCC(C2)C1 | 9.5 nM | 21 nM |  | ND; failed HTS |  |  |  | 
9 | O=C(c1occc1Cl)N1CC2CNCC(C2)C1 |  | 29 nM |  | ND; failed HTS | 96 nM |  |  | 
10 | CCCCC#Cc1coc(C(=O)N2CC3CNCC3C2)c1 (centres unmarked) | 43 nM | 21 nM |  | ND; failed HTS |  |  |  | 
11 | Cc1ccc(C(=O)N2CC3CNCC(C3)C2)o1 | 100 nM | 42 nM |  |  |  |  | ND; failed HTS | 
12 | O=C(c1cnco1)N1CC2CNCC(C2)C1 | 28 nM | 26 nM |  | ND; failed HTS |  |  |  | 
13 | O=C(c1cc(-c2ccoc2)co1)N1CC2CNCC(C2)C1 | 12 nM | 35 nM |  | ND; failed HTS |  |  |  | 
14 | Cc1oc(C(=O)N2CC3CNCC(C3)C2)cc1Br |  | 5.2 nM |  | ND; failed HTS | 7.5 nM |  |  | 
15 | Cc1cc(C(=O)N2CC3CNCC(C3)C2)on1 |  | 47 nM |  | ND; failed HTS | 29 nM |  |  | 
16 | Cc1ccc(C(=O)N2CC3CNCC3C2)o1 (centres unmarked) |  | 28 nM |  |  | 130 nM |  |  | 23000 nM
17 | O=C(c1cc(Br)c(Br)o1)N1CC2CNCC2C1 (centres unmarked) |  |  |  | ND; failed HTS |  |  |  | 
18 | O=C(c1cc(-c2cc(F)cc(F)c2)co1)N1CC2CNCC(C2)C1 | 6.3 nM | 23 nM |  | ND; failed HTS |  |  |  | 
19 | COc1ccoc1C(=O)N1CC2CNCC2C1 (centres unmarked) | 353 nM | 100 nM |  | ND; failed HTS |  |  |  | 
20 | O=C(c1ncco1)N1CC2CNCC(C2)C1 | 370 nM | 85 nM |  | ND; failed HTS |  |  |  | 

Row | Compound | Ki (rat α4β2 nAChR subtype; [1]) | Ki (human α4β2 nAChR subtype; [2]) | Ki (α7 nAChR subtype; [3]) | α7 high through-put screening outcome (Ki not determined) (α7 nAChR subtype; [4]) | Ki (rat α4β2 nAChR subtype) | Ki (human α4β2 nAChR subtype) | α7 high through-put screening outcome (Ki not determined) (α7 nAChR subtype) | Ki (α7 nAChR subtype)
21 | CC(=O)Nc1ccc(C(=O)N2CC3CNCC(C3)C2)o1 | 87 nM | 210 nM |  | ND; failed HTS |  |  |  | 
22 | C=Cc1ccoc1C(=O)N1CC2CNCC2C1 (centres unmarked) | 140 nM | 51 nM |  | ND; failed HTS |  |  |  | 
23 | O=C(c1occc1Br)N1CC2CNCC(C2)C1 | 79 nM |  |  | ND; failed HTS |  | 17 nM |  | 
24 | O=C(c1cc(Cl)co1)N1CC2CNCC(C2)C1 |  | 5.2 nM |  | ND; failed HTS | 13 nM |  |  | 
25 | N#Cc1ccc(C(=O)N2CC3CNCC(C3)C2)o1 |  |  |  | ND; failed HTS | 35 nM | 8.7 nM |  | 
26 | N#Cc1ccc(C(=O)N2CC3CNCC3C2)o1 (centres unmarked) | 50 nM |  |  | ND; failed HTS |  | 40 nM |  | 
27 | Cc1ncoc1C(=O)N1CC2CNCC(C2)C1 | 20 nM | 64 nM |  | ND; failed HTS |  |  |  | 
28 | C#Cc1ccc(C(=O)N2CC3CNCC3C2)o1 (centres unmarked) | 140 nM | 48 nM |  | ND; failed HTS |  |  |  | 
29 | O=C(c1ccno1)N1CC2CNCC2C1 (centres unmarked) | 43 nM | 69 nM |  |  |  |  | ND; failed HTS | 
30 | COc1cc(C(=O)N2CC3CNCC3C2)on1 (centres unmarked) | 19 nM | 19 nM | 3500 nM |  |  |  |  | 
31 | O=C(c1occc1F)N1CC2CNCC(C2)C1 | 110 nM | 57 nM |  | ND; failed HTS |  |  |  | 
32 | O=C(c1cc(-c2ccccc2)co1)N1CC2CNCC2C1 (centres unmarked) | 260 nM | 86 nM | 12000 nM |  |  |  |  | 
33 | O=C(c1ccc(F)o1)N1CC2CNCC(C2)C1 | 6.4 nM |  |  | ND; failed HTS |  | 4.6 nM |  | 
34 | Cc1ncoc1C(=O)N1CC2CNCC2C1 (centres unmarked) | 15 nM | 9.2 nM | 210000 nM |  |  |  |  | 
35 | O=C(c1ccc(F)o1)N1CC2CNCC2C1 (centres unmarked) | 8.3 nM | 16 nM |  | ND; failed HTS |  |  |  | 
36 | O=C(c1ccc(C#Cc2ccccc2)o1)N1CC2CNCC2C1 (centres unmarked) | 230 nM | 43 nM | 3200 nM |  |  |  |  | 
37 | Cc1cc(C(=O)N2CC3CNCC3C2)on1 (centres unmarked) | 32 nM | 31 nM |  | ND; failed HTS |  |  |  | 
38 | Cc1cc(C(=O)N2CC3CNCC(C3)C2)no1 |  |  |  | ND; failed HTS | 68 nM | 96 nM |  | 
39 | O=C(c1cc(Br)c(Br)o1)N1CC2CNCC(C2)C1 |  |  |  | ND; failed HTS |  |  |  | 
40 | O=C(c1cc(Br)co1)N1CC2CNCC2C1 (centres unmarked) | 29 nM | 18 nM |  | ND; failed HTS |  |  |  | 
